From patent US20230357179A1, “RAF KINASE INHIBITORS AND METHODS OF USE THEREOF” (Deciphera Pharmaceuticals, LLC, priority 2021, published 2023)

Tests used:
A-Raf kinase = molecular target: T1, A-Raf kinase (Homo sapiens, UniProt P10398, Y301D/Y302D); test: Biochemical assay for A-Raf.1 (coupled pyruvate kinase/lactate dehydrogenase); settings: read-out: ARAF.1 IC50
T1 construct: purchased Sigma
Procedure, shortened: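 A-Raf (5.55 nM) phosphorylating 30.1 nM MEK with 1 mM ATP was monitored by pyruvate kinase/lactate dehydrogenase-coupled NADH oxidation at 340 nm for 6 h at 30° C, in pH 7.5 Tris buffer with 15 mM MgCl2, 1% DMSO. Rates from 4–5 h gave percent inhibition; IC50 by four-parameter fit.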

B-Raf (V600E) kinase = molecular target: T2, B-Raf (V600E) kinase (Homo sapiens, UniProt P15056, V600E); test: Biochemical assay for B-Raf (V600E).1 (coupled pyruvate kinase/lactate dehydrogenase); settings: read-out: BRAF V600E.1 IC50
T2 construct: B-Raf (V600E) residues 416-766 with a; GST (N); purchased SignalChem
Procedure, shortened: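 0.03 nM B-Raf(V600E) phosphorylating 30.1 nM MEK at 1 mM ATP, pH 7.5, coupled to PK/LDH, with NADH oxidation followed at 340 nm for 6 h at 30 °C. Rates taken from the 3-4 h window. IC50 from a four-parameter fit of percent inhibition.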

A375 cells = test: A375 cell proliferation assay (1), resazurin, 96-well; assay type: cell-based; settings: Homo sapiens, A-375, inhibition of cell proliferation
Procedure, shortened: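 Viability was read by resazurin fluorescence at 540 nm excitation and 600 nm emission, using a 440 μM solution added for 5–6 h at the end of culture. IC50 came from the curve fit.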

WM3928 cells = test: WM3928 cell proliferation assay (1), resazurin, 96-well; assay type: cell-based; settings: inhibition of cell proliferation
Procedure: WM3928 Cell Proliferation Assay (1)
WM3928 cells (#WM3928-01-0001) are obtained from Rockland Immunochemicals Inc (Gilbertsville, PA). Briefly, cells were grown in MCDB 153 medium (Sigma, #M7403, St. Louis, MO) supplemented with 20% Leibovitz's L-15 (ThermoFisher #11415-064, Waltham, MA), 2% heat inactivated fetal bovine serum (ThermoFisher, #A3840001, Waltham, MA), 5 μg/mL Insulin (Bovine Pancreas) (Sigma, #I0516, St. Louis, MO), 1.68 mM Calcium Chloride (Sigma, #C-34006, St. Louis, MO) and 1% Penicillin/Streptomycin/L-Glutamine (ThermoFisher #10378016, Waltham, MA) at 37° C., 5% CO2, and 95% humidity. Cells are expanded until reaching 70-95% confluency at which point they are subcultured or harvested for assay use. A serial dilution of test compound is dispensed into a 96-well black clear bottom plate in triplicate. Three thousand cells are added per well in 200 μL complete growth medium in the 96-well plate. Plates are incubated for 67-72 hours at 37° C., 5% CO2, and 95% humidity. At the end of the incubation, 40 μL of a 440 μM solution of resazurin (Sigma, #199303, St. Louis, MO) in PBS is added to each well of the plate and plates are incubated for an additional 6-7 hours at 37° C., 5% CO2, and 95% humidity. Plates are read on a Synergy2 or equivalent reader (Biotek, Winooski VT) using an excitation of 540 nm and an emission of 600 nm. Data is analyzed using Prism software (GraphPad, San Diego, CA) to calculate IC50 values.

T2 sequence (P15056 416-766 V600E): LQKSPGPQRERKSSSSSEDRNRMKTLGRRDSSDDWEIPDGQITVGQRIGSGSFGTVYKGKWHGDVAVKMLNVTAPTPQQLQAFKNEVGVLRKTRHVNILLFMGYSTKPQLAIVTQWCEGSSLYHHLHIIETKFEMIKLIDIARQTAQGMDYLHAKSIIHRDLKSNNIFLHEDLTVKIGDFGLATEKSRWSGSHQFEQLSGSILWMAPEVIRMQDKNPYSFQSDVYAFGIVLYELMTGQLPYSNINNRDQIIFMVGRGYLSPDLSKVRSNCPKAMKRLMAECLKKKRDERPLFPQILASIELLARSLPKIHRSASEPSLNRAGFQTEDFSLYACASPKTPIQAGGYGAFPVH
T1 sequence (P10398 with tags, fused parts or gaps Y301D/Y302D): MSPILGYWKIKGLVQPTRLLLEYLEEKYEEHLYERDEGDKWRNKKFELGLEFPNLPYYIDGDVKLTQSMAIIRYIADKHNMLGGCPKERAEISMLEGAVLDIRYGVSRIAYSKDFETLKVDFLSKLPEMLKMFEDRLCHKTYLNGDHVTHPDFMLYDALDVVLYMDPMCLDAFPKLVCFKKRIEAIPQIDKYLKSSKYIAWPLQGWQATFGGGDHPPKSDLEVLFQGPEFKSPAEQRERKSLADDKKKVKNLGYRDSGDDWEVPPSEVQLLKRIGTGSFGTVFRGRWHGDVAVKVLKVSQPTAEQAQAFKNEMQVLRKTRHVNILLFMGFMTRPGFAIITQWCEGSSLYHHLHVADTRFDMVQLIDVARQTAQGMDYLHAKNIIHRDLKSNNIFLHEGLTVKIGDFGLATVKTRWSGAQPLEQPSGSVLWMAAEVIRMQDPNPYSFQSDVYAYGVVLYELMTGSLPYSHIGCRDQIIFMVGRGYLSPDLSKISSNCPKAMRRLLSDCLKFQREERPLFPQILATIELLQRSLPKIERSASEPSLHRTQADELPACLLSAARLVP

| SMILES | IC50 (A-Raf kinase) [µM] | IC50 (B-Raf (V600E) kinase) [µM] | IC50 (A375 cells) [µM] | IC50 (WM3928 cells) [µM] |
| --- | --- | --- | --- | --- |
| Cc1ccc(NC(=O)NCCC(C)(C)C)cc1-c1ccnc(N2CCOCC2)c1 [Example 18] | > 1 | ≤ 0.1 | 1 to 10 |  |
| Cc1cc(F)c(NC(=O)NCCC(C)(C)C#N)cc1-c1cc(N2CCOCC2)nc(N2CCOCC2)c1 [Example 22] | > 1 | ≤ 0.1 | 1 to 10 | 1 to 10 |
| Cc1cc(F)c(NC(=O)NCCC2(C(F)(F)F)CC2)cc1-c1cc(N2CCOCC2)nc(N2CCOCC2)c1 [Example 23] | > 1 | ≤ 0.1 | 0.5 to 1 | 0.1 to 0.5 |
| Cc1cc(F)c(NC(=O)NCCC2(C(F)(F)F)CC2)cc1-c1cc(OCCO)nc(C2CCOCC2)c1 [Example 24] | > 1 | ≤ 0.1 | 0.1 to 0.5 |  |
| COC(C)(C)CCNC(=O)Nc1ccc(C)c(-c2cc(-c3cnn(C)c3)nc(N3CCOCC3)c2)c1 [Example 38] | > 1 | ≤ 0.1 | 1 to 10 |  |
| Cc1ccc(NC(=O)Nc2cn(C)nc2C(F)(F)F)cc1-c1cc(OCCO)nc(N2CCOCC2)c1 [Example 42] | > 1 | ≤ 0.1 | 1 to 10 |  |
| Cc1ccc(NC(=O)Nc2cnc(C(F)(F)F)s2)cc1-c1cc(OCCO)nc(N2CCOCC2)c1 [Example 43] | > 1 | ≤ 0.1 | ≤ 0.1 |  |
| CC(=O)Nc1cc(-c2cc(-c3cc(NC(=O)NC4CC(C)(C)C4)c(F)cc3C)cc(OCCO)n2)ccn1 [Example 47] | 0.1 to 0.5 | ≤ 0.1 | ≤ 0.1 |  |
| CC(=O)Nc1cc(-c2cc(-c3cc(NC(=O)Nc4ccc(C(F)(F)F)cc4)cnc3C)ccn2)ccn1 [Example 48] | > 1 | ≤ 0.1 | 1 to 10 |  |
| CC(=O)Nc1cc(-c2cc(-c3cc(NC(=O)N[C@H]4C[C@](C)(F)C4)ccc3C)cc(OCCO)n2)ccn1 [Example 49] | 0.1 to 0.5 | ≤ 0.1 | 1 to 10 |  |
| Cc1ccc(NC(=O)N[C@H]2C[C@](C)(F)C2)cc1-c1cc(OCCO)nc(-c2ccnc(NC(=O)CN(C)C)c2)c1 [Example 50] | > 1 | ≤ 0.1 | 1 to 10 |  |
| CC(=O)Nc1cc(-c2cc(-c3cc(NC(=O)NCCC4(C)CC4)c(F)cc3C)cc(C3CC3)n2)ccn1 [Example 51] | > 1 | ≤ 0.1 | 1 to 10 |  |
| CC(=O)Nc1cc(-c2cc(-c3cc(NC(=O)NCC45CC(F)(C4)C5)c(F)cc3C)cc(OCCO)n2)ccn1 [Example 52] | > 1 | ≤ 0.1 | 1 to 10 |  |
| CC(=O)Nc1cc(-c2cc(-c3cc(NC(=O)NC4CCCCC4)c(F)cc3C)cc(OCCO)n2)ccn1 [Example 53] | 0.1 to 0.5 | ≤ 0.1 | ≤ 0.1 |  |
| CC(=O)Nc1cc(-c2cc(-c3cc(NC(=O)NCCC4(C(F)(F)F)CC4)c(F)cc3C)cc(C3CC3)n2)ccn1 [Example 54] | > 1 | ≤ 0.1 | 0.1 to 0.5 |  |
| CC(=O)Nc1cc(-c2cc(-c3cc(NC(=O)NCCC4(C)CC4)c(F)cc3C)cc(C)n2)ccn1 [Example 55] | 0.1 to 0.5 | ≤ 0.1 | 1 to 10 |  |
| CC(=O)Nc1cc(-c2cc(-c3cc(NC(=O)NCCC4(C)CC4)ccc3C)cc(N3CCOCC3)n2)ccn1 [Example 57] | 0.5 to 1 | ≤ 0.1 | 0.1 to 0.5 |  |
| CC(=O)Nc1cc(-c2cc(-c3cc(NC(=O)NCCC(C)(C)C#N)c(F)cc3C)cc(C3CC3)n2)ccn1 [Example 59] | 0.1 to 0.5 | ≤ 0.1 | 1 to 10 |  |
| COC(C)(C)CCNC(=O)Nc1ccc(C)c(-c2cc(-c3ccnc(NC(C)=O)c3)n(C)c(=O)c2)c1 [Example 60] | > 1 | ≤ 0.1 | 1 to 10 |  |
| Cc1ccc(NC(=O)N[C@H]2C[C@](C)(F)C2)cc1-c1cc(-c2ccnc(NC(=O)C3CC3)c2)nc(C2CC2)c1 [Example 61] | > 1 | ≤ 0.1 | 1 to 10 |  |
| CC(=O)Nc1cc(-c2cc(-c3cc(NC(=O)NC4CCC(F)(F)CC4)c(F)cc3C)cc(OCCO)n2)ccn1 [Example 63] | 0.5 to 1 | ≤ 0.1 | ≤ 0.1 |  |

| SMILES | IC50 (A-Raf kinase) [µM] | IC50 (B-Raf (V600E) kinase) [µM] | IC50 (A375 cells) [µM] | IC50 (WM3928 cells) [µM] |
| --- | --- | --- | --- | --- |
| Cc1ccc(NC(=O)Nc2ccnc(C(C)(C)C#N)c2)cc1-c1ccnc(-c2ccnc(C(=O)NC3CC3)c2)c1 [Example 68] | > 1 | ≤ 0.1 | 1 to 10 |  |
| CNC(=O)c1cc(-c2cc(-c3cc(NC(=O)Nc4ccnc(C(C)(C)C#N)c4)ccc3C)ccn2)ccn1 [Example 69] | > 1 | ≤ 0.1 | 1 to 10 |  |
| COC(C)(C)CCNC(=O)Nc1cc(-c2cccc(-c3ccnc(NC(C)=O)c3)c2)c(C)cc1F [Example 71] | 0.1 to 0.5 | ≤ 0.1 | 1 to 10 |  |
| CNC(=O)c1cc(-c2cccc(-c3cc(NC(=O)NCCC(C)(C)OC)c(F)cc3C)c2)ccn1 [Example 72] | > 1 | ≤ 0.1 | 1 to 10 |  |
| COC(C)(C)CCNC(=O)Nc1cc(-c2cnnc(-c3ccnc(NC(=O)C4CC4)c3)c2)c(C)cc1F [Example 173] | > 1 | ≤ 0.1 | 0.5 to 1 |  |
| COC(=O)Nc1cc(-c2nc(OCCO)cc(-c3cc(NC(=O)NC4CC(C)(C)C4)cnc3C)n2)ccn1 [Example 174] | > 1 | ≤ 0.1 | 1 to 10 |  |
| CC(=O)Nc1cc(-c2cc(-c3cc(NC(=O)NCCC4(C)CC4)c(F)cc3C)cc(NCCO)n2)ccn1 [Example 175] | 0.1 to 0.5 | ≤ 0.1 | 0.1 to 0.5 |  |
| COC[C@H]1CCN(C(=O)Nc2cnc(C)c(-c3ccnc(-c4ccnc(NC(=O)OC)c4)c3)c2)C1 [Example 176] | > 1 | ≤ 0.1 | 1 to 10 |  |
| CNC(=O)c1cc(-c2cnnc(-c3cc(NC(=O)N4CC[C@H](OC)C4)ccc3C)c2)ccn1 [Example 177] | > 1 | 0.1 to 0.5 | 1 to 10 |  |
| CNC(=O)c1cc(-c2cnnc(-c3cc(NC(=O)N4CCC5(CC5)C4)ccc3C)c2)ccn1 [Example 178] | > 1 | ≤ 0.1 | 1 to 10 |  |
| COC[C@@H]1CCN(C(=O)Nc2cnc(C)c(-c3ccnc(-c4ccnc(NC(=O)OC)c4)c3)c2)C1 [Example 179] | > 1 | ≤ 0.1 | 1 to 10 |  |
| CNC(=O)c1cc(-c2cnnc(-c3cc(NC(=O)N4CCC(C(C)(C)C)C4)ccc3C)c2)ccn1 (centres unmarked) [Example 180] | > 1 | ≤ 0.1 | 0.1 to 0.5 |  |
| CNC(=O)c1cc(-c2cnnc(-c3cc(NC(=O)N4CC[C@@H](OC)C4)ccc3C)c2)ccn1 [Example 181] | > 1 | 0.1 to 0.5 | 1 to 10 |  |
| CNC(=O)c1cc(-c2cnnc(-c3cc(NC(=O)N4CC[C@@H](OC(F)(F)F)C4)ccc3C)c2)ccn1 [Example 182] | > 1 | ≤ 0.1 | 1 to 10 |  |
| CNC(=O)c1cc(-c2cnnc(-c3cc(NC(=O)N4CCC(C(C)(C)C)C4)cnc3C)c2)ccn1 (centres unmarked) [Example 184] | > 1 | ≤ 0.1 | 1 to 10 |  |
| COC(=O)Nc1cc(-c2cnnc(-c3cc(NC(=O)N4CCC(C(C)(C)C)C4)ccc3C)c2)ccn1 (centres unmarked) [Example 185] | > 1 | ≤ 0.1 | 0.1 to 0.5 |  |
| COC(=O)Nc1cc(-c2cc(-c3cc(NC(=O)NCCC4(C)CC4)ccc3F)cc(OCCO)n2)ccn1 [Example 187] | > 1 | 0.1 to 0.5 | 1 to 10 |  |
| COC(=O)Nc1cc(-c2cc(-c3cc(NC(=O)NCCC4(C)CC4)c(F)cc3F)cc(OCCO)n2)ccn1 [Example 188] | > 1 | ≤ 0.1 | 0.5 to 1 |  |
| COC(=O)Nc1cc(-c2nccc(-c3cc(NC(=O)N4CCC(C(F)(F)F)C4)ccc3C)n2)ccn1 (centres unmarked) [Example 193] | > 1 | 0.1 to 0.5 | 1 to 10 |  |
| CNC(=O)c1cc(-c2cc(-c3cc(NC(=O)NC4CCCCC4)c(F)cc3C)cc(OCCO)n2)ccn1 [Example 205] | > 1 | ≤ 0.1 | 0.1 to 0.5 |  |
